Test results taken from patent US20220273016A1, “HUMAN MILK OLIGOSACCHARIDES FOR CONTROL OF DIETARY RESPONSE AND METABOLIC PHENOTYPE” (The Regents of the University of California, priority 2019, published 2022).
“Also recorded” adds a separate entry of the source.

What was measured:
[1] = Gut permeability of cecum in Ussing chambers (FD-4 flux); type: in vivo, mice; settings: 10% 2′-FL supplementation diet, 8 weeks, flux at 90 min
Description: (§1) To measure gut permeability (FIGS. 4A and 4B), a section of cecum was opened along the mesenteric border and mounted in Ussing chambers (Physiologic Instruments, San Diego, Calif.), exposing 0.3 cm^2 of tissue surface area to 2.5 ml of oxygenated Krebs-glucose (10 mM) and Krebs-mannitol (10 mM) at 37° C. on the serosal and luminal sides, respectively. The paracellular pathway and transcellular pathway were measured as the flux of FITC-4000 (FD-4; Sigma-Aldrich) and horseradish peroxidase (HRP Type VI; Sigma Aldrich), respectively. FD-4 ([…]) and HRP ([…]) were added to the mucosal chamber, and samples were collected from the serosal chamber every 30 min for 2 h. The concentration of FD-4 was measured via fluorescence at excitation of 485 nm and emission of 538 nm. O-dianisidine substrate was used to detect HRP at absorbance 450 nm. Data are shown as flux at 90 min. Gene expression of IL-22 in the ileum (FIG. 4C) and MCP-1 (FIG. 4E) in adipose tissue were measured as described in Example 2. LBP levels (FIG. 4D) were detected in plasma via enzyme-linked immunosorbent assay according to manufacturer's recommendation (Biometec). […] For FIGS. 4A-4E, statistical analysis was performed by using Prism software (Prism 8.4; GraphPad Software, La Jolla, Calif.). Data are presented as means SEMs. ROUT test was used to exclude outliers. Differences were considered significant if P<0.05.

[2] = system: sterol regulatory element binding protein-1c (SREBP-1c); assay: Hepatic gene expression of SREBP-1c (real-time PCR); type: in vivo, mice; settings: 10% 2′-FL supplementation diet, 8 weeks
Description: (§2) Body composition for fat and lean mass (FIGS. 2A and 2B) was analyzed in live animals using EchoMRI-100 ™ from Echo Medical Systems (Houston, Tex.) every two weeks in mice fed an LF or HF with or without 10% 2′-FL supplementation. To measure the size of adipocytes (FIG. 2C), mesenteric adipose tissue collected at euthanasia was fixed in 10% neutral-buffered formalin (Thermo Fisher Scientific, Waltham, Mass.) overnight and transferred to 70% ethanol for one day. Afterwards, the tissues were processed in a routine manner for paraffin sections (Tissue Tek VIP Tissue Processor; Sakura Finetek USA, Torrance, Calif.). Paraffin-embedded sections (5 μm) were cut and stained with H&E (Sigma-Aldrich) for microscopic examination (Olympus BX60, Waltham, Mass.) at 20× magnification. To quantitate adipocyte size (FIG. 2C), the H&E-stained sections were analyzed using the ImageJ software (National Institutes of Health, Bethesda, Md.). […] Genes of interest were analyzed according to the 2^−ΔΔT method and compared with control samples. […]

[3] = system: peroxisome proliferator-activated receptor γ (PPAR γ); assay: Hepatic gene expression of PPARγ (real-time PCR); type: in vivo, mice; settings: 10% 2′-FL supplementation diet, 8 weeks
Description: as §2

[4] = system: lipopolysaccharide-binding protein (LBP); assay: Plasma LBP level by enzyme-linked immunosorbent assay; type: in vivo, mice; settings: HF + 10% 2′-FL in drinking water, 6 weeks
Description: as §1

[5] = system: monocyte chemoattractant protein-1 (MCP-1); assay: Gene expression of MCP-1 in adipose tissue (real-time PCR); type: in vivo, mice; settings: HF + 10% 2′-FL in drinking water, 6 weeks
Description: as §1

c-Fos = c-Fos expression in hindbrain (NTS and AP) after CCK injection; type: in vivo, mice; settings: 10% 2′-FL supplementation, CCK i.p.
Description: (§3) After 4 weeks on respective diets, 2′-FL sensitivity to the satiating effect of the gut peptide CCK was tested (FIG. 3A). Experiments were performed at the onset of the dark phase. Mice were fasted on wire-bottom cages for 6 h during the light phase. At the onset of the dark phase, CCK (octapeptide, sulfated, Bachem, Torrance, Calif., 100 μl at […]; i.p.) or saline (100 μl; i.p.) was administered. Food was placed in the cage and food intake recorded after 20 min. After 6 weeks of respective diets, c-Fos expression in hindbrain was determined. (FIGS. 3B and 3C). Mice were fasted for 4 h, ip injected with CCK ([…]), and euthanized using deep anesthesia induced with pentobarbital (Fatal Plus, Vortech Pharmaceuticals, Dearborn, Mich., USA; 300 mg/kg; i.p.). The hindbrain was collected and post-fixed in 4% paraformaldehyde (Electron Microscopy Sciences, Hatfield, Pa.). Hindbrains were cryosectioned at 30 μm thickness and stained for c-Fos protein expression in the NTS and AP regions. […] Images were acquired using a confocal microscope (Leica TCS SP8 STED 3×; Leica, Wetzlar, Germany) and quantified in a blinded manner using Imaris Software (Bitplane, Zurich, Switzerland). […]

[6] = Body weight and energy intake in mice fed a high-fat diet with 2′-FL in drinking water; type: in vivo, Male C57/BL6 mice; settings: 2′-FL 10% (w/v) in drinking water, 6 wk, vs HF group
Description: Animals were maintained and handled in accordance with protocols approved by the Institutional Animal Care and Use Committee (University of California, Davis). Male C57/BL6 mice (n=6/group; 6 week old, Harlan, San Diego, Calif.) were split into three weight-matched groups and fed either a low-fat (LF; 10% kcal as fat), high-fat (HF; 45% kcal as fat), or HF diet with 2′-FL (HF_2′-FL) at 10% (w/v) in drinking water for 6 wk. All animals were housed individually at 22° C. with 12 h:12 h light-dark cycles. Body weight and food intake were measured twice a week. Statistical analysis was performed using Prism software (Prism 8.1.2; GraphPad Software). Six-week HF feeding increased energy intake compared to the LF groups but without statistical significance (FIG. 1B). […] For FIGS. 1A and 1B, data are presented as means±SEMs. ROUT test was used to exclude outliers. Differences were considered significant if P<0.05.

[7] = Body composition (EchoMRI fat and lean mass) and adipocyte size in mice fed LF or HF with or without 10% 2′-FL; type: in vivo; settings: 10% 2′-FL supplementation diet, 8 weeks
Description: Body composition for fat and lean mass (FIGS. 2A and 2B) was analyzed in live animals using EchoMRI-100 ™ from Echo Medical Systems (Houston, Tex.) every two weeks in mice fed an LF or HF with or without 10% 2′-FL supplementation. To measure the size of adipocytes (FIG. 2C), mesenteric adipose tissue collected at euthanasia was fixed in 10% neutral-buffered formalin (Thermo Fisher Scientific, Waltham, Mass.) overnight and transferred to 70% ethanol for one day. Afterwards, the tissues were processed in a routine manner for paraffin sections (Tissue Tek VIP Tissue Processor; Sakura Finetek USA, Torrance, Calif.). Paraffin-embedded sections (5 μm) were cut and stained with H&E (Sigma-Aldrich) for microscopic examination (Olympus BX60, Waltham, Mass.) at 20× magnification. To quantitate adipocyte size (FIG. 2C), the H&E-stained sections were analyzed using the ImageJ software (National Institutes of Health, Bethesda, Md.). For hepatic gene expression of peroxisome proliferator-activated receptor γ (PPAR γ) and sterol regulatory element binding protein-1c (SREBP-1c) (FIGS. 2D and 2E), total RNA from liver samples was extracted via the TRIzol method (Life Technologies, Grand Island, N.Y.). cDNAs were synthesized from […] of purified RNA samples using iScript cDNA synthesis kit (Bio-Rad, Hercules, Calif.) following the manufacturer's protocol. Real-time PCR was performed with the Quantstudio 6 Flex real-time PCR machine using SyberGreen master mix (Life Technologies) for detection. R-Actin and GAPDH were used as housekeeping genes. Genes of interest were analyzed according to the 2^−ΔΔT method and compared with control samples.
For FIGS. 2A-2E, statistical analysis was performed by using Prism software (Prism 8.4; GraphPad Software, La Jolla, Calif.). Data are presented as means±SEMs. ROUT test was used to exclude outliers. Differences were considered significant if P<0.05.

[8] = CCK feeding study (food intake after i.p. CCK); type: in vivo, mice; settings: HF + 10% 2′-FL, CCK i.p. vs saline, 6 h fast
Description: as §3

For 2′-fucosyllactose [2′-FL], the “paracellular permeability (FD-4 flux in cecum)” value [1] was “decreased paracellular permeability”, the “gene expression of SREBP-1c in the liver” value [2] was “downregulates” and the “gene expression of PPAR γ in the liver” value [3] was “downregulates”. The “circulating LPB levels” value [4] was “reduced circulating LPB levels”, the “expression of inflammatory cytokines in adipocytes (MCP-1 gene expression in adipose tissue)” value [5] was “significant decrease of MCP-1 gene expression; also recorded: systemically lowered expression of inflammatory cytokines in adipocytes” and the “intestinal satiety signals (c-Fos immunopositive cells in NTS and AP)” value (c-Fos) was “restores intestinal satiety signals”. The energy intake ([6]; HF diet (45% kcal as fat)) was “suppressed”, the body weight ([6]; HF diet) was “lower body weight compared with the HF group” and the “adipogenesis (adipocyte size in visceral adipose tissue)” value [7] was “suppresses adipogenesis”. For the same substance, the “adiposity (fat body mass)” value [7] was “reduced adiposity”, the lean mass [7] was “preserving lean mass” and the “sensitivity to the satiating effect of CCK (food intake after 20 min)” value [8] was “restores sensitivity to CCK”.
